Results: US20240277583A1, “Micellar Mouthwash Composition” (Colgate-Palmolive Company, priority 2022, published 2024)

What was measured:
[1] = Colloid particle (micelle) size by dynamic light scattering; format: physicochemical; conditions: colloid particle diameter
Source text: Next, the colloid particle (micelle) size in Formulations A and B as well as Elmex mouthwash is examined.
In contrast, the micelle size of Formulation B is around 14.1 nm, close to that of PEG-40 hydrogenated castor oil (16.0 nm). Although the inflection point of the surface tension curve is not obvious in the Elmex mouthwash, dynamic light scattering detects colloid particles with 12.2 nm diameter, which are likely solubilized oil droplets in the mouthwash product. With the smallest particle size (amine fluoride/coco glucoside<amine fluoride<amine fluoride/PEG-40 hydrogenated castor oil), amine fluoride/cocoyl glucoside complex is most mobile and can likely reach smaller spaces that others cannot reach. This feature would likely enhance the delivery of active encapsulated in the micelle core, and also enhance availability of amine fluoride, therefore improving its antibacterial efficacy.

[2] = Diffusion rate D determined by NMR; format: physicochemical

CCCCCCCCCCCCCCCCCCN(CCO)CCCN(CCO)CCO.F.F [Olaflur, N′-octadecyltrimethylenediamine-N,N,N′-tris(2-ethanol)-dihydrofluoride]
Micelle size (nm) mean [1]: 6.6 nm
D in individual solution ([2]; ingredient alone in solution): 4.84 × 10^−6 cm^2/s
D in Formulation A ([2]; ingredient within Formulation A (Olaflur + coco glucoside)): 2.27 × 10^−6 cm^2/s
D in Formulation B ([2]; ingredient within Formulation B (Olaflur + PEG-40 hydrogenated castor oil)): 4.33 × 10^−6 cm^2/s
